Measured values published in ChEMBL document CHEMBL1137946, “Synthesis and biological evaluation of (-)-laulimalide analogues” (Bioorg Med Chem Lett, 2004).

Assays:
MDA-MB-435 = experiment: In vitro growth inhibitory activity against MDA-MB-435 human breast cancer cell line; type: functional, cell-based
HT-29 = experiment: In vitro growth inhibitory activity against HT-29 human colon cancer cell line; type: functional, cell-based

| SMILES | IC50 (MDA-MB-435) | IC50 (HT-29) |
| --- | --- | --- |
| C=C1C[C@H](C)C[C@@H]2CC=C[C@@H](C/C=C\C(=O)O[C@H]([C@H](/C=C/[C@@H]3CC(C)=CCO3)OC(C)=O)C[C@@H]3O[C@H]3[C@@H](O)C1)O2 | 91 nM |  |
| C=C1C[C@H](C)C[C@@H]2CC=C[C@@H](C/C=C\C(=O)O[C@H]([C@@H](O)/C=C/[C@@H]3CC(C)=CCO3)C/C=C/[C@H](O)C1)O2 | 790 nM | 2700 nM |
| C=C1C[C@H](C)C[C@@H]2CC=C[C@@H](C/C=C\C(=O)O[C@H]([C@H](/C=C/[C@@H]3CC(C)=CCO3)OC)C[C@@H]3O[C@H]3[C@@H](O)C1)O2 | 242 nM | 590 nM |
| C=C1C[C@H](C)C[C@@H]2CC=C[C@@H](C/C=C\C(=O)O[C@H]([C@@H](O)/C=C/[C@@H]3CC(C)=CCO3)C/C=C/[C@@H](O)C1)O2 | 289 nM | 960 nM |
| C=C1C[C@H](C)C[C@@H]2CC=C[C@@H](C/C=C\C(=O)O[C@H]([C@@H](O)/C=C/[C@@H]3CC(C)=CCO3)C[C@@H]3O[C@H]3[C@H](OC(=O)c3ccc([N+](=O)[O-])cc3)C1)O2 | 37 nM |  |
| C=C1CC(=O)/C=C/C[C@@H]([C@@H](O)/C=C/[C@@H]2CC(C)=CCO2)OC(=O)/C=C\C[C@@H]2C=CC[C@@H](C[C@@H](C)C1)O2 | > 1000 nM |  |
| C=C1C[C@H](C)C[C@@H]2CC=C[C@@H](C/C=C\C(=O)O[C@H]([C@H](/C=C/[C@@H]3CC(C)=CCO3)O[Si](C)(C)C(C)(C)C)C[C@@H]3O[C@H]3[C@@H](O)C1)O2 | > 1000 nM |  |
| C=C1C[C@H](C)C[C@@H]2CC=C[C@@H](C/C=C\C(=O)O[C@H]([C@@H](O)/C=C/[C@@H]3CC(C)=CCO3)C[C@@H]3O[C@H]3[C@@H](OC(C)=O)C1)O2 | 23 nM |  |
| C=C1C[C@H](C)C[C@@H]2CC=C[C@@H](C/C=C\C(=O)O[C@H]([C@@H](O)/C=C/[C@@H]3CC(C)=CCO3)C[C@@H]3O[C@H]3[C@@H](O)C1)O2 [FIJIANOLIDE B] | 2.3 nM | 6.9 nM |
| C=C1C[C@H](C)C[C@@H]2CC=C[C@@H](C/C=C\C(=O)O[C@H]([C@@H](O)/C=C/[C@@H]3CC(C)=CCO3)C[C@H]3O[C@@H]3[C@H](O)C1)O2 | 176 nM |  |
| C=C1CC(=N\OC)/C=C/C[C@@H]([C@@H](O)/C=C/[C@@H]2CC(C)=CCO2)OC(=O)/C=C\C[C@@H]2C=CC[C@@H](C[C@@H](C)C1)O2 | > 1000 nM |  |
| C=C1C[C@H](C)C[C@@H]2CC=C[C@@H](CC#CC(=O)O[C@H]([C@H](/C=C/[C@@H]3CC(C)=CCO3)OC)C[C@@H]3O[C@H]3[C@@H](O)C1)O2 | > 1000 nM | > 1000 nM |
| C=C1C[C@H](C)C[C@@H]2CC=C[C@@H](C/C=C\C(=O)O[C@H]([C@H](/C=C/[C@@H]3CC(C)=CCO3)OC(C)=O)C[C@@H]3O[C@H]3[C@@H](OC(C)=O)C1)O2 | 289 nM |  |
| C=C1C[C@H](C)C[C@@H]2CC=C[C@@H](CCCC(=O)O[C@H]([C@H](/C=C/[C@@H]3CC(C)=CCO3)OC)C[C@@H]3O[C@H]3[C@@H](O)C1)O2 | > 1000 nM | > 1000 nM |
| C=C1C[C@H](C)C[C@@H]2CC=C[C@@H](C/C=C/C(=O)O[C@H]([C@@H](O)/C=C/[C@@H]3CC(C)=CCO3)C/C=C/[C@@H](O)C1)O2 | 2760 nM | 8500 nM |
| C=C1C[C@H](C)C[C@@H]2CC=C[C@@H](C/C=C/C(=O)O[C@H]([C@@H](O)/C=C/[C@@H]3CC(C)=CCO3)C/C=C/[C@H](O)C1)O2 | 4300 nM | 9600 nM |
| C=C1C[C@H](C)C[C@@H]2CC=C[C@@H](C/C=C\C(=O)O[C@H]([C@@H](O)/C=C/[C@@H]3CC(C)=CCO3)C[C@@H]3O[C@H]3[C@H](OC(=O)N(C)C)C1)O2 | 601 nM |  |
| C=C1C[C@H](C)C[C@@H]2CC=C[C@@H](C/C=C\C(=O)O[C@H]([C@@H](O)/C=C/[C@@H]3CC(C)=CCO3)C[C@@H]3O[C@H]3[C@H](OC(=O)OC)C1)O2 | 422 nM |  |
| C=C1C[C@H](C)C[C@@H]2CC=C[C@@H](C/C=C\C(=O)O[C@H]([C@@H](O)/C=C/[C@@H]3CC(C)=CCO3)C[C@@H]3O[C@H]3[C@@H](OC)C1)O2 | > 1000 nM |  |
| C=C1C[C@H](C)C[C@@H]2CC=C[C@@H](C/C=C\C(=O)O[C@H]([C@@H](O)/C=C/[C@@H]3CC(C)=CCO3)C[C@H]3O[C@@H]3[C@H](OC(=O)c3ccc([N+](=O)[O-])cc3)C1)O2 | > 1000 nM |  |
